# Measured values as given in patent publication US8906825B2, “Herbicidal compositions comprising 4-amino-3-chloro-5-fluoro-6-(4-chloro-2-fluoro-3-methoxyphenyl) pyridine-2-carboxylic acid or a derivative thereof and triazolopyrimidine sulfonamides” (Dow AgroSciences LLC, priority 2012, dated 2014).
# Assays:
# Assay type in all cases: in vivo
# [1] = tested on: CYPIR (Cyperus iria L., rice flatsedge); assay: Postemergence foliar-applied herbicidal mixtures, direct seeded rice, greenhouse (Example I)
# Excerpt: (§1) Seeds or nutlets of the desired test plant species were planted in a soil matrix prepared by mixing a loam or sandy loam soil (e.g., 28.6 percent silt, 18.8 percent clay, and 52.6 percent sand, with a pH of about 5.8 and an organic matter content of about 1.8 percent) and calcareous grit in an 80 to 20 ratio. The soil matrix was contained in plastic pots with a volume of 1 quart and a surface area of 83.6 square centimeters (cm^2). When required to ensure good germination and healthy plants, a fungicide treatment and/or other chemical or physical treatment was applied. The plants were grown for 8-22 days in a greenhouse with an approximate 14 h photoperiod which was maintained at about 29° C. during the day and about 26° C. during the night. Nutrients (Peters Excel® 15-5-15 5-Ca 2-Mg and iron chelate) were applied in the irrigation solution as needed and water was added on a regular basis. Supplemental lighting was provided with overhead metal halide 1000-Watt lamps as necessary. The plants were employed for testing when they reached the first through fourth true leaf stage.
# (§2) Treatments consisted of the acid or esters of 4-amino-3-chloro-5-fluoro-6-(4-chloro-2-fluoro-3-methoxy-phenyl)pyridine-2-carboxylic acid (Compound A), each formulated as an SC (suspension concentrate), and various herbicidal components alone and in combination. Forms of compound A were applied on an acid equivalent basis.
# (§3) Other herbicidal components were applied on an active ingredient basis and included acetolactate synthase (ALS)-inhibiting herbicides (sulfonamide chemical class) penoxsulam formulated as Grasp® SC, diclosulam formulated as Strongarm®, and cloransulam-methyl formulated as FirstRate®, flumetsulam formulated as Flumetsulam WG, and metosulam formulated as Eclipse®.
# (§4) Treatment requirements were calculated based upon the rates being tested, the concentration of active ingredient or acid equivalent in the formulation, and a 12 mL application volume at a rate of 187 L/ha.
# (§5) For treatments comprised of formulated compounds, measured amounts of compounds were placed individually in 25 mL glass vials and diluted in a volume of 1.25% (v/v) Agri-Dex® crop oil concentrated to obtain 12× stock solutions. […] Application solutions were prepared by adding an appropriate amount of each stock solution (e.g., 1 mL) and diluted to the appropriate final concentrations with the addition of 10 mL of an aqueous mixture of 1.25% (v/v) crop oil concentrate so that the final spray solutions contained 1.25+/−0.05% (v/v) crop oil concentrate.
# (§6) All stock solutions and applications solutions were visually inspected for compound compatibility prior to application. Spray solutions were applied to the plant material with an overhead Mandel track sprayer equipped with an 8002E nozzle calibrated to deliver 187 L/ha over an application area of 0.503 m^2 at a spray height of 18 to 20 inches (46 to 50 cm) above average plant canopy height. Control plants were sprayed in the same manner with the solvent blank.
# (§7) The treated plants and control plants were placed in a greenhouse as described above and watered by sub-irrigation to prevent wash-off of the test compounds. After approximately 3 weeks, the condition of the test plants as compared with that of the untreated plants was determined visually and scored on a scale of 0 to 100 percent where 0 corresponds to no injury or growth inhibition and 100 corresponds to complete kill.
# (§8) Colby's equation was used to determine the herbicidal effects expected from the mixtures (Colby, S. R. 1967. Calculation of the synergistic and antagonistic response of herbicide combinations. Weeds 15:20-22.).
# (§9) The following equation was used to calculate the expected activity of mixtures containing two active ingredients, A and B: Expected=A+B−(A×B/100)
# [2] = tested on: DIGSA (Digitaria sanguinalis (L.) Scop., large crabgrass); assay: as above; conditions: Cloransulam-methyl 2.19 gai/ha
# Excerpt: as §1, §2, §3, §4, §5, §6, §7, §8, §9
# [3] = tested on: LEFCH (Leptochloa chinensis (L.) Nees, Chinese sprangletop); assay: as above
# Excerpt: as §1, §2, §3, §4, §5, §6, §7, §8, §9
# [4] = tested on: CYPDI (Cyperus difformis L., smallflower umbrella sedge); assay: In-water applied herbicidal mixtures, transplanted paddy rice, greenhouse (Example II)
# Method: (§10) Weed seeds or nutlets of the desired test plant species were planted in puddled soil (mud) prepared by mixing a shredded, non-sterilized mineral soil (50.5 percent silt, 25.5 percent clay, and 24 percent sand, with a pH of about 7.6 and an organic matter content of about 2.9 percent) and water at a 1:1 volumetric ratio. The prepared mud was dispensed in 365 mL aliquots into 16-ounce (oz.) non-perforated plastic pots with a surface area of 86.59 square centimeters (cm^2) leaving a headspace of 3 centimeters in each pot. Mud was allowed to dry overnight prior to planting or transplanting. Rice seeds were planted in Sun Gro MetroMix® 306 planting mixture, which typically has a pH of 6.0 to 6.8 and an organic matter content of about 30 percent, in plastic plug trays. Seedlings at the second or third leaf stage of growth were transplanted into 840 mL of mud contained in 32-oz. non-perforated plastic pots with a surface area of 86.59 cm^2 4 days prior to herbicide application. The paddy was created by filling the headspace of the pots with 2.5 to 3 cm of water. When required to ensure good germination and healthy plants, a fungicide treatment and/or other chemical or physical treatment was applied. The plants were grown for 4-22 days in a greenhouse with an approximate 14 h photoperiod which was maintained at about 29′C during the day and about 26° C. during the night. Nutrients were added as Osmocote® (19:6:12, N:P:K+minor nutrients) at 2 g per 16-oz. pot and 4 g per 32-oz. pot. Water was added on a regular basis to maintain the paddy flood, and supplemental lighting was provided with overhead metal halide 1000-Watt lamps as necessary. The plants were employed for testing when they reached the first through fourth true leaf stage.
# (§11) Treatments consisted of the acid or esters of 4-amino-3-chloro-5-fluoro-6-(4-chloro-2-fluoro-3-methoxy-phenyl)pyridine-2-carboxylic acid (compound A) each formulated as an SC and various herbicidal components alone and in combination. Forms of compound A were applied on an acid equivalent basis.
# (§12) Other herbicidal components were applied on an active ingredient basis and included acetolactate synthase (ALS)-inhibiting herbicides (sulfonamide chemical class) penoxsulam formulated as Grasp® SC (GF-443), diclosulam formulated as Strongarm®, and cloransulam-methyl formulated as FirstRate®.
# (§13) Treatment requirements for each compound or herbicidal component were calculated based upon the rates being tested, the concentration of active ingredient or acid equivalent in the formulation, an application volume of 2 mL per component per pot, and an application area of 86.59 cm^2 per pot.
# (§14) For formulated compounds, a measured amount was placed in an individual 100 or 200 mL glass vial and was dissolved in a volume of 1.25% (v/v) Agri-Dex® crop oil concentrate to obtain each application solution.
# (§15) Applications were made by injecting with a pipetter appropriate amounts of the application solutions, individually and sequentially, into the aqueous layer of the paddy. Control plants were treated in the same manner with the solvent blank. Applications were made so that all treated plant material received the same concentrations of acetone and crop oil concentrate.
# as §7, with “water was added as needed” for “watered by sub-irrigation”, “maintain a paddy flood.” for “prevent wash-off of the test compounds.”, “weeks” for “weeks,”
# as §8, §9
# [5] = tested on: ECHCG (Echinochloa crusgalli (L.) Beauv., barnyardgrass); assay: as above
# Method: as §10, §11, §12, §13, §14, §15
# as §7, with “water was added as needed” for “watered by sub-irrigation”, “maintain a paddy flood.” for “prevent wash-off of the test compounds.”, “weeks” for “weeks,”
# as §8, §9
# [6] = tested on: FIMMI (Fimbristylis miliacea (L.) Vahl, globe fringerush); assay: as above
# Method: as §10, §11, §12, §13, §14, §15
# as §7, with “water was added as needed” for “watered by sub-irrigation”, “maintain a paddy flood.” for “prevent wash-off of the test compounds.”, “weeks” for “weeks,”
# as §8, §9
# [7] = tested on: BRAPP (Brachiaria platyphylla (Griseb.) Nash, broadleaf signalgrass); assay: Postemergence foliar-applied herbicidal mixtures, direct seeded rice, greenhouse (Example I)
# Excerpt: as §1, §2, §3, §4, §5, §6, §7, §8, §9
# [8] = tested on: ECHCG (Echinochloa crusgalli (L.) Beauv., barnyardgrass); assay: as above
# Excerpt: as §1, §2, §3, §4, §5, §6, §7, §8, §9
# [9] = tested on: IPOHE (Ipomoea hederacea Jacq., ivyleaf morningglory); assay: as above
# Excerpt: as §1, §2, §3, §4, §5, §6, §7, §8, §9
# [10] = tested on: CYPRO (Cyperus rotundus L., purple nutsedge); assay: In-water applied herbicidal mixtures, transplanted paddy rice, greenhouse (Example II)
# Method: as §10, §11, §12, §13, §14, §15
# as §7, with “water was added as needed” for “watered by sub-irrigation”, “maintain a paddy flood.” for “prevent wash-off of the test compounds.”, “weeks” for “weeks,”
# as §8, §9
# [11] = Compound A n-Butyl Ester 4.38 gae/ha
# [12] = Compound A n-Butyl Ester 8.75 gae/ha
# [13] = Compound A n-Butyl Ester 17.5 gae/ha
smiles,measurement,setting,value
"CCOc1nc(F)cc2nc(S(=O)(=O)Nc3c(Cl)cccc3C(=O)OC)nn12 [Cloransulam-methyl, methyl 3-chloro-2-[[(5-ethoxy-7-fluoro[1,2,4]triazolo[1,5-c]pyrimidin-2-yl)sulfonyl]amino]benzoate, reference compound]",Visual Weed Control (%) - 20 DAA CYPIR Obs,[1]; Cloransulam-methyl 4.38 gai/ha,70%
same,Visual Weed Control (%) - 20 DAA CYPIR Obs,[1]; Cloransulam-methyl 8.75 gai/ha,85%
same,Visual Weed Control (%) - 20 DAA DIGSA Obs,[2],10%
same,Visual Weed Control (%) - 20 DAA LEFCH Obs,"[3]; Cloransulam-methyl 2.19 gai/ha, Table 7",0%
same,Visual Weed Control (%) - 20 DAA LEFCH Obs,"[3]; Cloransulam-methyl 4.38 gai/ha, Table 6",0%
same,Visual Weed Control (%) - 20 DAA LEFCH Obs,"[3]; Cloransulam-methyl 4.38 gai/ha, Table 7",0%
same,Visual Weed Control (%) - 20 DAA LEFCH Obs,"[3]; Cloransulam-methyl 8.75 gai/ha, Table 6",0%
same,Visual Weed Control (%) - 21 DAA CYPDI Obs,[4]; Cloransulam-methyl 17.5 gai/ha,40%
same,Visual Weed Control (%) - 21 DAA CYPDI Obs,[4]; Cloransulam-methyl 35 gai/ha,80%
same,Visual Weed Control (%) - 22 DAA ECHCG Obs,[5]; Cloransulam-methyl 17.5 gai/ha,50%
same,Visual Weed Control (%) - 21 DAA FIMMI Obs,"[6]; Cloransulam-methyl 17.5 gai/ha, Table 14",40%
same,Visual Weed Control (%) - 21 DAA FIMMI Obs,"[6]; Cloransulam-methyl 17.5 gai/ha, Table 15",40%
same,Visual Weed Control (%) - 21 DAA FIMMI Obs,"[6]; Cloransulam-methyl 35 gai/ha, Table 14",60%
same,Visual Weed Control (%) - 21 DAA FIMMI Obs,"[6]; Cloransulam-methyl 35 gai/ha, Table 15",60%
CCCCOC(=O)c1nc(-c2ccc(Cl)c(OC)c2F)c(F)c(N)c1Cl [Compound A n-Butyl Ester],Visual Weed Control (%) - 21 DAA BRAPP Obs,[7]; [11],0%
same,Visual Weed Control (%) - 21 DAA BRAPP Obs,[7]; [12],40%
same,Visual Weed Control (%) - 27 DAA ECHCG Obs,[8]; [11],0%
same,Visual Weed Control (%) - 27 DAA ECHCG Obs,[8]; [12],0%
same,Visual Weed Control (%) - 27 DAA ECHCG Obs,[8]; [13],90%
same,Visual Weed Control (%) - 27 DAA IPOHE Obs,[9]; [11],10%
same,Visual Weed Control (%) - 27 DAA IPOHE Obs,[9]; [12],10%
same,Visual Weed Control (%) - 27 DAA IPOHE Obs,[9]; [13],10%
"CCOc1nc(F)cc2nc(S(=O)(=O)Nc3c(Cl)cccc3Cl)nn12 [Diclosulam, N-(2,6-dichlorophenyl)-5-ethoxy-7-fluoro[1,2,4]triazolo[1,5-c]pyrimidine-2-sulfonamide, reference compound]",Visual Weed Control (%) - 20 DAA LEFCH Obs,"[3]; Diclosulam 6.62 gai/ha, Table 4",0%
same,Visual Weed Control (%) - 20 DAA LEFCH Obs,"[3]; Diclosulam 6.62 gai/ha, Table 5",0%
same,Visual Weed Control (%) - 20 DAA LEFCH Obs,"[3]; Diclosulam 13.25 gai/ha, Table 5",20%
same,Visual Weed Control (%) - 21 DAA CYPRO Obs,[10]; Diclosulam 6.62 gai/ha,80%
same,Visual Weed Control (%) - 21 DAA CYPRO Obs,[10]; Diclosulam 13.25 gai/ha,80%
same,Visual Weed Control (%) - 21 DAA ECHCG Obs,[5]; Diclosulam 6.62 gai/ha,70%
